Test results taken from patent publication US10618918B2, “Substituted boronic acids as antimicrobials” (priority 2015, dated 2020).
Where two headings read alike, the source gives them in different places.

Key:
ECL1002 = experiment: Aztreonam potentiation (MPC@4), strain ECL1002; conditions: minimum BLI concentration inhibiting growth with aztreonam 4 μg/mL; tested up to 40 μg/mL
KP1005 CTX-M-14 = experiment: Tigemonam potentiation (MPC@4), strain KP1005 CTX-M-14; conditions: minimum BLI concentration inhibiting growth with tigemonam 4 μg/mL; tested up to 40 μg/mL
KP1086 OXA-48 = experiment: Biapenem potentiation (MPC@1), strain KP1086 OXA-48; type: cell-based; conditions: minimum BLI concentration inhibiting growth with biapenem 1 μg/mL; tested up to 40 μg/mL
Experimental: (§1) Biapenem was present in the test medium at 1 μg/mL. […] Table 3 summarizes the BLI potency of biapenem potentiation (MPC@1) for two strains overexpressing class A (KPC) and class D (OXA-48) carbapenemases. Biapenem MIC for each strain is also shown.

EC1010 CMY-6 = experiment: Aztreonam potentiation (MPC@4), strain EC1010 CMY-6; conditions: minimum BLI concentration inhibiting growth with aztreonam 4 μg/mL; tested up to 40 μg/mL
[1] = molecular target: T1, purified class A, C and D enzymes (β-lactamases) (Pseudomonas aeruginosa, UniProt P24735); experiment: biochemical; type: biochemical
T1 construct: rows headed: Ki (Pa-AmpC, NCF), uM; other: purified Pa-AmpC; nitrocefin (NCF) as reporter substrate
T1 sequence (P24735 whole entry): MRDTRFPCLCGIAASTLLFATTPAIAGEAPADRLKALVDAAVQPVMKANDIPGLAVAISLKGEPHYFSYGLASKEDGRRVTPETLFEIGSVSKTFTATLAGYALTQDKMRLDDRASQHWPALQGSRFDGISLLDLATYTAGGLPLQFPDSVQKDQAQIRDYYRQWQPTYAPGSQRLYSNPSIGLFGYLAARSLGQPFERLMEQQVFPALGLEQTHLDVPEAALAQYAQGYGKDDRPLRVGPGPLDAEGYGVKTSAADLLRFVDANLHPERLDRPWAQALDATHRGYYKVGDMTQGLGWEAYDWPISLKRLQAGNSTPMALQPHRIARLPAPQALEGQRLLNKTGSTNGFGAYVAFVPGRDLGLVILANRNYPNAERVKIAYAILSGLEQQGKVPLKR

[2] = molecular target: T2, purified class A, C and D enzymes (β-lactamases) (Acinetobacter baumannii, UniProt Q9L4P2); experiment: biochemical; type: biochemical; conditions: purified OXA-23; nitrocefin (NCF) as reporter substrate
T2 construct: rows headed: Ki (OXA-23, NCF), uM; other: purified OXA-23; nitrocefin (NCF) as reporter substrate
T2 sequence (Q9L4P2 whole entry): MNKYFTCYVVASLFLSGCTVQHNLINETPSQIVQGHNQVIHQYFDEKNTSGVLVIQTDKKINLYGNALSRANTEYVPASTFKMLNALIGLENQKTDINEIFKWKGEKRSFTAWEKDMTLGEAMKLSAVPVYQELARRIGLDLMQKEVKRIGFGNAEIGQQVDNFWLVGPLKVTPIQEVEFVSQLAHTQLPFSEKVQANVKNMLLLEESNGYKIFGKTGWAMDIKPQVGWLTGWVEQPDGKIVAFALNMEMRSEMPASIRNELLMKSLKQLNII

[3] = molecular target: purified class A, C and D enzymes (β-lactamases) (Escherichia coli, UniProt Q9L5C7); experiment: biochemical; type: biochemical; conditions: purified CTX-M-14; nitrocefin (NCF) as reporter substrate
purified class A, C and D enzymes (β-lactamases) (Escherichia coli, UniProt Q9L5C7), sequence (Q9L5C7 entry or part of it): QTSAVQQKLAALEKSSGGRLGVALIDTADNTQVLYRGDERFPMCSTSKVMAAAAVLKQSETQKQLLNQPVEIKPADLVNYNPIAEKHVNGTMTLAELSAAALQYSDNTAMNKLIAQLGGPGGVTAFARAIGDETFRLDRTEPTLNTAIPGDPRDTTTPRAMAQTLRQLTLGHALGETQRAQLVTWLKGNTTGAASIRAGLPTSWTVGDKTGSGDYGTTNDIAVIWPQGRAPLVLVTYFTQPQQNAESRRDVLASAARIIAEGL

[4] = molecular target: purified class A, C and D enzymes (β-lactamases) (Klebsiella pneumoniae, UniProt Q6XEC0); experiment: biochemical; type: biochemical; conditions: purified OXA-48; nitrocefin (NCF) as reporter substrate
[5] = molecular target: purified class A, C and D enzymes (β-lactamases) (Klebsiella pneumoniae, UniProt Q9F663); experiment: biochemical; type: biochemical; conditions: purified KPC-2; nitrocefin (NCF) as reporter substrate
[6] = molecular target: purified class A, C and D enzymes (β-lactamases) (Enterobacter cloacae, UniProt P05364); experiment: biochemical; type: biochemical
purified class A, C and D enzymes (β-lactamases) (Enterobacter cloacae, UniProt P05364), sequence (P05364 21-381): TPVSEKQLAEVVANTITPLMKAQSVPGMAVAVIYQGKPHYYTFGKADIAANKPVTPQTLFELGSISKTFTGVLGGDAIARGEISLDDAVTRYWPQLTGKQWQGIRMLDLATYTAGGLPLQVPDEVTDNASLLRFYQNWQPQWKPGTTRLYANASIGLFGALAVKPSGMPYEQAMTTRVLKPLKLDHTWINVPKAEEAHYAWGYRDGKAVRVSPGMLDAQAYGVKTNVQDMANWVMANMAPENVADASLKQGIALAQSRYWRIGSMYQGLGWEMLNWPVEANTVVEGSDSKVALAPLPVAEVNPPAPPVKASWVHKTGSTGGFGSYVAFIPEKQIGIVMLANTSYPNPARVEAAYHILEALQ

AB1053 OXA-72 = experiment: Meropenem potentiation (MPC@8), strain AB1053 OXA-72; type: cell-based, Acinetobacter baumannii; conditions: minimum BLI concentration inhibiting growth with meropenem 8 μg/mL; tested up to 20 μg/mL
KP1010 SHV-12 = experiment: Aztreonam potentiation (MPC@4), strain KP1010 SHV-12; conditions: minimum BLI concentration inhibiting growth with aztreonam 4 μg/mL; tested up to 40 μg/mL
KP1004 KPC-2 [7] = experiment: Aztreonam potentiation (MPC@4), strain KP1004 KPC-2; conditions: minimum BLI concentration inhibiting growth with aztreonam 4 μg/mL; tested up to 40 μg/mL
AB1054 OXA-23 = experiment: Meropenem potentiation (MPC@8), strain AB1054 OXA-23; type: cell-based, Acinetobacter baumannii; conditions: minimum BLI concentration inhibiting growth with meropenem 8 μg/mL; tested up to 20 μg/mL
KP1004 KPC-2 [8] = experiment: Biapenem potentiation (MPC@1), strain KP1004 KPC-2; type: cell-based; conditions: minimum BLI concentration inhibiting growth with biapenem 1 μg/mL; tested up to 40 μg/mL
Experimental: as §1

ec308 SHV-5 = experiment: Aztreonam potentiation (MPC@4), strain ec308 SHV-5; conditions: minimum BLI concentration inhibiting growth with aztreonam 4 μg/mL; tested up to 40 μg/mL
KP1009 CTX-M-15 = experiment: Aztreonam potentiation (MPC@4), strain KP1009 CTX-M-15; conditions: minimum BLI concentration inhibiting growth with aztreonam 4 μg/mL; tested up to 40 μg/mL
ec302 TEM-10 = experiment: Aztreonam potentiation (MPC@4), strain ec302 TEM-10; conditions: minimum BLI concentration inhibiting growth with aztreonam 4 μg/mL; tested up to 40 μg/mL

| Compound | AZT MPC4 ECL1002 (ECL1002) | TIG MPC4 CTX-M-14 KP1005 (KP1005 CTX-M-14) | BPM MPC1 OXA-48 KP1086 (KP1086 OXA-48) | AZT MPC4 CMY-6 EC1010 (EC1010 CMY-6) | Ki [1] | Ki [2] | Ki (CTX-M-14, NCF), uM [3] | Ki (OXA-48, NCF), uM [4] | Ki (KPC-2, NCF), uM [5] | Ki (P99, NCF), uM [6] | MPM MPC8 AB1053 OXA-72 (AB1053 OXA-72) | AZT MPC4 SHV-12 KP1010 (KP1010 SHV-12) | AZT MPC4 KPC-2 KP1004 (KP1004 KPC-2 [7]) | MPM MPC8 AB1054 OXA-23 (AB1054 OXA-23) | BPM MPC1 KP1004 KPC-2 (KP1004 KPC-2 [8]) | AZT MPC4 SHV-5 ec308 (ec308 SHV-5) | AZT MPC4 CTX-M-15 KP1009 (KP1009 CTX-M-15) | AZT MPC4 TEM-10 ec302 (ec302 TEM-10) | Ki ([1]; purified Pa-AmpC, nitrocefin (NCF) as reporter substrate, read-out: Ki (Pa-AmpC, NCF)) | Ki (P99, NCF), uM ([6]; purified P99, nitrocefin (NCF) as reporter substrate) |
| --- | --- | --- | --- | --- | --- | --- | --- | --- | --- | --- | --- | --- | --- | --- | --- | --- | --- | --- | --- | --- |
| COc1ccc2c(c1C(=O)[O-])O[B-](O)(O)[C@@H](C)C2.[Na+].[Na+] [Compound 11, Disodium; (3S)-4,4-dihydroxy-8-methoxy-3-methyl-5-oxa-4-boranuidabicyclo[4.4.0]deca-1(6),7,9-triene-7-carboxylate] | Y (Y = 5 μg/mL < MPC@4 ≤ 20 μg/mL) | Z (Z = MPC@4 > 20 μg/mL) | Y (Y = 5 μg/mL < MPC@1 ≤ 20 μg/mL) | X (X = MPC@4 ≤ 5 μg/mL) | < 0.1 µM | < 0.1 µM | X (X = Ki ≤ 0.1 μM) | X (X = Ki ≤ 0.1 μM) | X (X = Ki ≤ 0.1 μM) | X (key: X = Ki ≤ 0.1 μM; Y = 0.1 μM < Ki ≤ 1 μM; Z = Ki > 1 μM) | X (X = MPC@1 ≤ 5 μg/mL) | Y (Y = 5 μg/mL < MPC@4 ≤ 20 μg/mL) | Y (Y = 5 μg/mL < MPC@4 ≤ 20 μg/mL) | Y (Y = 5 μg/mL < MPC@1 ≤ 20 μg/mL) | X (X = MPC@1 ≤ 5 μg/mL) | Y (Y = 5 μg/mL < MPC@4 ≤ 20 μg/mL) | Y (Y = 5 μg/mL < MPC@4 ≤ 20 μg/mL) | Y (Y = 5 μg/mL < MPC@4 ≤ 20 μg/mL) | – | – |
| O=C([O-])c1c(CSc2nncs2)ccc2c1O[B-](O)(O)CC2.[Na+].[Na+] [Compound 20, Disodium; 4,4-dihydroxy-8-(1,3,4-thiadiazol-2-ylsulfanylmethyl)-5-oxa-4-boranuidabicyclo[4.4.0]deca-1(6),7,9-triene-7-carboxylate] | X (X = MPC@4 ≤ 5 μg/mL) | Y (Y = 5 μg/mL < MPC@4 ≤ 20 μg/mL) | X (X = MPC@1 ≤ 5 μg/mL) | X (X = MPC@4 ≤ 5 μg/mL) | < 0.1 µM | < 0.1 µM | X (X = Ki ≤ 0.1 μM) | X (X = Ki ≤ 0.1 μM) | X (X = Ki ≤ 0.1 μM) | X (key: X = Ki ≤ 0.1 μM; Y = 0.1 μM < Ki ≤ 1 μM; Z = Ki > 1 μM) | Y (Y = 5 μg/mL < MPC@1 ≤ 20 μg/mL) | X (X = MPC@4 ≤ 5 μg/mL) | X (X = MPC@4 ≤ 5 μg/mL) | Y (Y = 5 μg/mL < MPC@1 ≤ 20 μg/mL) | X (X = MPC@1 ≤ 5 μg/mL) | X (X = MPC@4 ≤ 5 μg/mL) | X (X = MPC@4 ≤ 5 μg/mL) | X (X = MPC@4 ≤ 5 μg/mL) | – | – |
| O=C(O)c1c(-c2c[nH]nn2)ccc2c1O[B-](O)(O)CC2 [Compound 16, Disodium; 4,4-dihydroxy-8-(1H-triazol-5-yl)-5-oxa-4-boranuidabicyclo[4.4.0]deca-1(6),7,9-triene-7-carboxylate] | X (X = MPC@4 ≤ 5 μg/mL) | Y (Y = 5 μg/mL < MPC@4 ≤ 20 μg/mL) | Y (Y = 5 μg/mL < MPC@1 ≤ 20 μg/mL) | X (X = MPC@4 ≤ 5 μg/mL) | < 0.1 µM | < 0.1 µM | X (X = Ki ≤ 0.1 μM) | X (X = Ki ≤ 0.1 μM) | X (X = Ki ≤ 0.1 μM) | X (key: X = Ki ≤ 0.1 μM; Y = 0.1 μM < Ki ≤ 1 μM; Z = Ki > 1 μM) | X (X = MPC@1 ≤ 5 μg/mL) | X (X = MPC@4 ≤ 5 μg/mL) | X (X = MPC@4 ≤ 5 μg/mL) | Y (Y = 5 μg/mL < MPC@1 ≤ 20 μg/mL) | X (X = MPC@1 ≤ 5 μg/mL) | Y (Y = 5 μg/mL < MPC@4 ≤ 20 μg/mL) | X (X = MPC@4 ≤ 5 μg/mL) | X (X = MPC@4 ≤ 5 μg/mL) | – | – |
| O=C([O-])c1c(OCC(F)F)ccc2c1O[B-](O)(O)CC2.[Na+].[Na+] [Compound 29, Disodium; 8-(2,2-difluoroethoxy)-4,4-dihydroxy-5-oxa-4-boranuidabicyclo[4.4.0]deca-1(6),7,9-triene-7-carboxylate] | X (X = MPC@4 ≤ 5 μg/mL) | Y (Y = 5 μg/mL < MPC@4 ≤ 20 μg/mL) | X (X = MPC@1 ≤ 5 μg/mL) | X (X = MPC@4 ≤ 5 μg/mL) | < 0.1 µM | < 0.1 µM | X (X = Ki ≤ 0.1 μM) | X (X = Ki ≤ 0.1 μM) | X (X = Ki ≤ 0.1 μM) | X (key: X = Ki ≤ 0.1 μM; Y = 0.1 μM < Ki ≤ 1 μM; Z = Ki > 1 μM) | X (X = MPC@1 ≤ 5 μg/mL) | X (X = MPC@4 ≤ 5 μg/mL) | X (X = MPC@4 ≤ 5 μg/mL) | Y (Y = 5 μg/mL < MPC@1 ≤ 20 μg/mL) | X (X = MPC@1 ≤ 5 μg/mL) | X (X = MPC@4 ≤ 5 μg/mL) | Y (Y = 5 μg/mL < MPC@4 ≤ 20 μg/mL) | Y (Y = 5 μg/mL < MPC@4 ≤ 20 μg/mL) | – | – |
| O=C(O)c1c(F)ccc2c1OB(O)COC2 [Compound 58, 8-Fluoro-2-hydroxy-3,5-dihydro-1,4,2-benzodioxaborepine-9-carboxylic acid] | X (X = MPC@4 ≤ 5 μg/mL) | Z (Z = MPC@4 > 20 μg/mL) | X (X = MPC@1 ≤ 5 μg/mL) | X (X = MPC@4 ≤ 5 μg/mL) | – | 0.1 to 1 µM | X (X = Ki ≤ 0.1 μM) | X (X = Ki ≤ 0.1 μM) | X (X = Ki ≤ 0.1 μM) | – | Z (Z = MPC@1 > 20 μg/mL) | Y (Y = 5 μg/mL < MPC@4 ≤ 20 μg/mL) | X (X = MPC@4 ≤ 5 μg/mL) | Z (Z = MPC@1 > 20 μg/mL) | X (X = MPC@1 ≤ 5 μg/mL) | Z (Z = MPC@4 > 20 μg/mL) | Z (Z = MPC@4 > 20 μg/mL) | Z (Z = MPC@4 > 20 μg/mL) | < 0.1 µM | X (X = Ki ≤ 0.1 μM) |
| CCOc1ccc2c(c1C(=O)[O-])O[B-](O)(O)CC2.[Na+].[Na+] [Compound 57, Disodium; 8-ethoxy-4,4-dihydroxy-5-oxa-4-boranuidabicyclo[4.4.0]deca-1(6),7,9-triene-7-carboxylate] | X (X = MPC@4 ≤ 5 μg/mL) | Y (Y = 5 μg/mL < MPC@4 ≤ 20 μg/mL) | X (X = MPC@1 ≤ 5 μg/mL) | X (X = MPC@4 ≤ 5 μg/mL) | < 0.1 µM | < 0.1 µM | X (X = Ki ≤ 0.1 μM) | X (X = Ki ≤ 0.1 μM) | X (X = Ki ≤ 0.1 μM) | X (key: X = Ki ≤ 0.1 μM; Y = 0.1 μM < Ki ≤ 1 μM; Z = Ki > 1 μM) | X (X = MPC@1 ≤ 5 μg/mL) | X (X = MPC@4 ≤ 5 μg/mL) | X (X = MPC@4 ≤ 5 μg/mL) | X (X = MPC@1 ≤ 5 μg/mL) | X (X = MPC@1 ≤ 5 μg/mL) | X (X = MPC@4 ≤ 5 μg/mL) | X (X = MPC@4 ≤ 5 μg/mL) | X (X = MPC@4 ≤ 5 μg/mL) | – | – |
